In patent US20260286356A1, “NUCLEIC ACID VACCINE FOR ACTIVATING NKG2C+ NATURAL KILLER CELLS” (priority 2023, published 2026):

How the values were obtained:
[1] = system: NKG2A−/NKG2C+ NK cells; assay: NK cell stimulation assay with peptide-loaded HLA-E expressing target cells, NKG2C+ cells; format: cell-based, human; settings: NK cell degranulation and IFN-g, TNF and CCL3 production; compared to LIL, LFL and PQS controls
Experimental: (§1) FIG. 4: NK cell stimulation assays. Assessment of effects of peptides on NK cell activity through incubation of NK cells, peptides, and a) K562/HLA-E or b) RMA-S/HLA-E target cells. Peptides were derived from the human or CMV proteomes or are included as positive (LFL, LIL) or negative controls (PQS). Replicates for individual peptides are from different donors, with solid black lines indicating mean values.
(§2) Cell-based activation assays were performed with primary NK cells (FIG. 4). Therein, NK cells were co-incubated with K562 peptide-loaded HLA-E expressing cells, as described previously^14. The K562 human […] cell line is a common tool for the analysis of NK cell cytotoxicity and activation, as said cells facilitate the analysis of both NKG2C-mediated activation and NKG2A-mediated inhibition. The PQS peptide served as a negative control.
(§3) Peptides that bound and stabilized HLA-E in the cell-based stability experiment (FIG. 3) were selected and assessed regarding their effect on NKG2A+/NKG2C− or NKG2A−/NKG2C+ NK cell activity. The effect was quantified by the ability to induce NK cell degranulation and IFN-g, TNF and CCL3 production, compared to […] (“LIL”; SEQ ID NO: 4) and […] (“LFL”; SEQ ID NO: 2) peptides (class I MHC-derived) as positive control, and […] (“PQS”; (SEQ ID NO: 53) as negative control peptide (FIG. 4). NKG2A/NKG2C NK cells served as an internal control. NKG2A/NKG2C NK cells have been shown previously to not be affected by peptide-HLA-E complexes.

[2] = biological target: HLA-E (Homo sapiens, UniProt P13747); assay: HLA-E surface stabilization assay with RMA-S/HLA-E cells; format: cell-based; settings: RMA-S/HLA-E cells incubated with 30 μM peptide, anti-HLA-E antibody
Chain of HLA-E (P13747 22-358): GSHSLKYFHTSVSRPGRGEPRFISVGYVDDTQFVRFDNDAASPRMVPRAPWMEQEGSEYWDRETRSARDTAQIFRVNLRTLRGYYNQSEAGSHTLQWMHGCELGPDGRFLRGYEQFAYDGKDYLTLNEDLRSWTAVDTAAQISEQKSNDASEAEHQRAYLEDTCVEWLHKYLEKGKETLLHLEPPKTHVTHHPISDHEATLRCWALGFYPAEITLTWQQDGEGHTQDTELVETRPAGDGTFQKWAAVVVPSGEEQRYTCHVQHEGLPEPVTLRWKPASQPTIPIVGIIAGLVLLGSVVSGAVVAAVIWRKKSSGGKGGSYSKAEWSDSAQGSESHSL
Chain of HLA-E (P61769 21-119, further chain): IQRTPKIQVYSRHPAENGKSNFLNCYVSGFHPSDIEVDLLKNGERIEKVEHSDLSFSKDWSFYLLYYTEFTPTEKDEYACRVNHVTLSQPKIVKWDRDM
Experimental: Assessment of peptide-HLA-E binding via HLA-E surface stabilization assay with RMA-S/HLA-E cells incubated with 30 μM peptide. HLA-E expression is detected with an anti-HLA-E antibody.
To do so, various sequence variants were assessed for their ability to stabilize surface-expressed HLA-E on RMA-S/HLA-E cells, a TAP-deficient mouse tumor cell line engineered to express HLA-E and human β2M (FIG. 3).

[3] = system: NKG2A+/NKG2C− NK cells; assay: NK cell stimulation assay with peptide-loaded HLA-E expressing target cells, NKG2A+ cells; format: cell-based, human; settings: NK cell degranulation and IFN-g, TNF and CCL3 production; compared to LIL, LFL and PQS controls
Experimental: as §1, §2, §3

Sequence	activating effect on NKG2C+ cells [1]	stabilization of HLA-E surface expression (peptide-HLA-E binding) [2]	inhibitory effect on NKG2A+ cells [3]
TLPERTLYL	strong activating effect	strong stabilization of HLA-E	strong inhibitory effect
RMPPRSVLL	strong activating effect		strong inhibitory effect
FLPNRSLLF	strong activating effects	strong stabilization of HLA-E	moderate inhibitory effects
TLPKRGLFL	strong activating effects	strong stabilization of HLA-E	moderate inhibitory effects
WNRLFPPLR [UBAC2275-279, reference compound]		no stabilizing effects	
VMPGRTLCF	strong activating effect	strong stabilization of HLA-E	strong inhibitory effect
TAPARTMFL		strong stabilization of HLA-E	
VMPPRTLLL	strong activating effect	strong stabilization of HLA-E	strong inhibitory effect
NMPARTVLF	strong activating effect	strong stabilization of HLA-E	strong inhibitory effect
VMADKSIFY [OR5D14, reference compound]		no stabilizing effects	
ILTDRSLWL	strong activating effects	strong stabilization of HLA-E	moderate inhibitory effects
VMGDRSVLY [EMC1, reference compound]		no stabilizing effects	
QMPSRSLLF	strong activating effects	strong stabilization of HLA-E	moderate inhibitory effects
VLPHRTQFL	strong activating effect	strong HLA-E binding	strong inhibitory effect
